From patent US20080182798A1, “Novel effectors of dipeptidyl peptidase IV” (priority 1998, published 2008)
pKi: −log10 of the molar value. Where a name gives a salt, the structure may show the parent alone. Values belong to the molecule of their own block, whether it stands above or below them.

Columns and labels:
[1] = biological target: dipeptidyl peptidase IV (Homo sapiens, UniProt P27487); assay: Action of effectors on the DP IV-catalysed hydrolysis of H-Gly-Pro-pNA; format: biochemical; settings: 0.4 mM H-Gly-Pro-pNA, 30° C., pH 7.6, ionic strength 0.125; for remaining activity at 10 µM / % Residual activity of DP IV in the presence of 10 μM effector: 10 μM effector; for remaining activity at 10 µM: read-out: % Residual activity of DP IV in the presence of 10 μM effector; for pKi: read-out: Effector affinity to DP IV: Ki
[2] = test system: circulating blood glucose; assay: Circulating blood glucose after oral administration with synchronous glucose tolerance test; format: in vivo, Wistar rat; settings: for Glucose concentration in % L-allo-Ile-thiazolidide-treated: oral 20 μM, within 60 min, % based on normoglycaemic values (control 100)
[3] = biological target: T1, peptide transporter Pep T1 (Homo sapiens, UniProt P46059); assay: Transport by the peptide transporter Pep T1; format: in vitro ADME; settings: in comparison with L-threo-isoleucyl thiazolidide
T1 sequence (P46059 1-708): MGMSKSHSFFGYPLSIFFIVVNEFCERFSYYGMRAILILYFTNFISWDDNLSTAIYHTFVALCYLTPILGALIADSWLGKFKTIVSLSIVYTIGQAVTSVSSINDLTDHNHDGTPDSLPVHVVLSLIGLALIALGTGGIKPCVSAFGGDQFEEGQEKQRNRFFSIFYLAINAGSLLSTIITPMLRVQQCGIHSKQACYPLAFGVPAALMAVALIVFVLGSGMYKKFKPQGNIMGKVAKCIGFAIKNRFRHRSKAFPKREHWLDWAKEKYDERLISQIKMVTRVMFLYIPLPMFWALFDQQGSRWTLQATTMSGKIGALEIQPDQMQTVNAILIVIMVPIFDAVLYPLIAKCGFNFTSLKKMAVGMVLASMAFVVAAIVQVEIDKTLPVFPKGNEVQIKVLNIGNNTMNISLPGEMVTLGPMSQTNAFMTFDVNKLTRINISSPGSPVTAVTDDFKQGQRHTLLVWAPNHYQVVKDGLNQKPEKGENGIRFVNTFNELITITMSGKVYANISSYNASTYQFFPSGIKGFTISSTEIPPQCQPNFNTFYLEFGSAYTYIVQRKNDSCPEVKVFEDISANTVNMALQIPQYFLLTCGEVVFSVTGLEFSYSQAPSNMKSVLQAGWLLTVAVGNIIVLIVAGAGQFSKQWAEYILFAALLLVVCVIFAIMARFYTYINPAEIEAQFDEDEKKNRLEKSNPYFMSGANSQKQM

[4] = Testing the solubility of salts of Ile-Thia in distilled water; format: physicochemical; settings: H2Odist.
Method: Testing the Solubility of Salts of Ile-Thia
Addition of 100 μl H2Odist.

dipeptidyl peptidase IV, sequence (P27487 whole entry, species assumed): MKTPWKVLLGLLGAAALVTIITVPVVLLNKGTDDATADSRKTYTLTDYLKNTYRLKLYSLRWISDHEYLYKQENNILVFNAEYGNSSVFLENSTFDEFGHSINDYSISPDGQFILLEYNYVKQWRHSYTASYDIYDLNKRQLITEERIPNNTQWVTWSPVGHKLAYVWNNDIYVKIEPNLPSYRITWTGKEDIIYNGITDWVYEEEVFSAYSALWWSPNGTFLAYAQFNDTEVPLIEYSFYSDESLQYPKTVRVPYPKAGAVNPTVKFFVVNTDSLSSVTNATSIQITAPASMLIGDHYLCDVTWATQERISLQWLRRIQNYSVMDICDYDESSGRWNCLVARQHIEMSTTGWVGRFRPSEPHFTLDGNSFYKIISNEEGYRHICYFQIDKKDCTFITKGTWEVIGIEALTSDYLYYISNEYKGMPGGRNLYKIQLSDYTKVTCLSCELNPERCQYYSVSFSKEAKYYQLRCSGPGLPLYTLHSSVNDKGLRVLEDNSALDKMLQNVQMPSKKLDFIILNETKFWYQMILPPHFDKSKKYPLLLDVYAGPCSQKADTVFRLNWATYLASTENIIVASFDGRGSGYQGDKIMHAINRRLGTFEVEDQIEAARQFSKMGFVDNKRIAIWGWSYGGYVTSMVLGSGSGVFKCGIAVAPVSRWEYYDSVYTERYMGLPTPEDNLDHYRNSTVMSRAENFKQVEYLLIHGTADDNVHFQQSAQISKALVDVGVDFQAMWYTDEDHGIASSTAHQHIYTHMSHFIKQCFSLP

SMILES: NC(=O)CC(N)C(=O)N1CCCC1 (centres unmarked) [H-Asn-pyrrolidide]
remaining activity at 10 µM [1]: 83.1%
pKi [1]: 4.92

SMILES: NC(=O)CC(N)C(=O)N1CCSC1 (centres unmarked) [H-Asn-thiazolidide]
remaining activity at 10 µM [1]: 47.2%
pKi [1]: 5.46

SMILES: NC(CCC(=O)NO)C(=O)N1CCCC1 (centres unmarked) [H-Glu(NHOH)-pyrrolidide]
% Residual activity of DP IV in the presence of 10 μM effector [1]: 44.9%
pKi [1]: 5.55

SMILES: NC(CCC(=O)O)C(=O)N1CCSC1 (centres unmarked) [H-Glu-thiazolidide]
remaining activity at 10 µM [1]: 25%
pKi [1]: 6.21

SMILES: NC(Cc1c[nH]cn1)C(=O)N1CCCC1 (centres unmarked) [H-His-pyrrolidide]
remaining activity at 10 µM [1]: 49.7%
pKi [1]: 5.46

SMILES: NC(Cc1c[nH]cn1)C(=O)N1CCSC1 (centres unmarked) [H-His-thiazolidide]
remaining activity at 10 µM [1]: 35.2%
pKi [1]: 5.74

SMILES: CC[C@H](C)[C@H](N)C(=O)N1CC1 [H-Ile-azididide]
% Residual activity of DP IV in the presence of 10 μM effector [1]: 43.8%
pKi [1]: 5.51

SMILES: CC[C@@H](C)[C@H](N)C(=O)N1CCSC1 [H-L-allo-Ile-thiazolidide, L-allo-isoleucyl thiazolidide]
Glucose concentration in % L-allo-Ile-thiazolidide-treated ([2]; Wistar rat (diabetes 2b-model, obese)): 73%
Glucose concentration in % L-allo-Ile-thiazolidide-treated ([2]; Wistar rat, normal): 82%
Degree of action with respect to glucose modulation ([2]; in comparison with L-threo-isoleucyl thiazolidide): approximately the same degree of action
Improvement in transport by the peptide transporter Pep T1 [3]: approximately five-fold

SMILES: CC(C)C(N)C(=O)N1CCSC1 (centres unmarked) [H-Val-thiazolidide]
remaining activity at 10 µM [1]: 13.6%
pKi [1]: 6.57

SMILES: C[C@H]1O[C@H](O[C@H]2[C@H](O)[C@@H](O)[C@@H](O[C@H]3[C@H](O)[C@@H](O)C(O)O[C@@H]3CO)O[C@@H]2CO)[C@H](O)[C@@H](O)[C@@H]1N[C@H]1C=C(CO)[C@@H](O)[C@H](O)[C@H]1O (some centres unmarked) [acarbose, reference compound]
remaining activity at 10 µM [1]: 100%
pKi [1]: < 3.00

Results, then the molecule that gave them:

remaining activity at 10 µM [1]: 88.2%
pKi [1]: 4.89
SMILES: NC(CC(=O)NO)C(=O)N1CCCC1 (centres unmarked) [H-Asp(NHOH)-pyrrolidide]

remaining activity at 10 µM [1]: 54.5%
pKi [1]: 5.06
SMILES: NC(CC(=O)NO)C(=O)N1CCSC1 (centres unmarked) [H-Asp(NHOH)-thiazolidide]

remaining activity at 10 µM [1]: 81.6%
pKi [1]: 4.85
SMILES: NC(CC(=O)O)C(=O)N1CCCC1 (centres unmarked) [H-Asp-pyrrolidide]

remaining activity at 10 µM [1]: 45.6%
pKi [1]: 5.54
SMILES: NC(CC(=O)O)C(=O)N1CCSC1 (centres unmarked) [H-Asp-thiazolidide]

remaining activity at 10 µM [1]: 36.5%
pKi [1]: 5.77
SMILES: NC(CCC(=O)NO)C(=O)N1CCSC1 (centres unmarked) [H-Glu(NHOH)-thiazolidide]

Wettability and decomposition in water [4]: scarcely wettable and does not decompose
Solubility: concentration at complete dissolution ([4]; visual): 2.63%
SMILES: CC[C@H](C)[C@H](N)C(=O)N1CCSC1 [L-threo-IT*F, L-threo-isoleucyl thiazolidide fumarate]

remaining activity at 10 µM [1]: 100%
pKi [1]: < 3.00
SMILES: COc1ccc(Cl)cc1C(=O)NCCc1ccc(S(=O)(=O)NC(=O)NC2CCCCC2)cc1 [glibenclamide, reference compound]

remaining activity at 10 µM [1]: 100%
pKi [1]: < 3.00
SMILES: CN(C)C(=N)N=C(N)N [metformin, reference compound]
